Laboratory results published in PubChem BioAssay (NCI).
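Tested at 5 concentrations; 48 h exposure; 96-well plates; endpoints linearly interpolated, else capped at highest concentration. GI50 is the concentration that inhibits growth by half. TGI is the concentration that stops growth completely.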

Columns and labels:
Assay in all cases: inhibition of tumour cell growth, NCI panel, 48 h
786-0 renal = system: 786-0 renal
A498 renal = system: A498 renal
A549 NSCLC = system: A549 NSCLC
ACHN renal = system: ACHN renal
BT-549 breast = system: BT-549 breast
CAKI-1 renal = system: CAKI-1 renal
CCRF-CEM leukemia = system: CCRF-CEM leukemia
COLO 205 colon = system: COLO 205 colon
DU-145 prostate = system: DU-145 prostate
EKVX NSCLC = system: EKVX NSCLC
HCC-2998 colon = system: HCC-2998 colon
HCT-116 colon = system: HCT-116 colon
HCT-15 colon = system: HCT-15 colon
HL-60(TB) leukemia = system: HL-60(TB) leukemia
HOP-62 NSCLC = system: HOP-62 NSCLC
HOP-92 NSCLC = system: HOP-92 NSCLC
HS 578T breast = system: HS 578T breast
HT29 colon = system: HT29 colon
IGROV1 ovarian = system: IGROV1 ovarian
K-562 leukemia = system: K-562 leukemia
KM12 colon = system: KM12 colon
LOX IMVI melanoma = system: LOX IMVI melanoma
M14 melanoma = system: M14 melanoma
MALME-3M melanoma = system: MALME-3M melanoma
MCF7 breast = system: MCF7 breast
MDA-MB-231 breast = system: MDA-MB-231 breast
MDA-MB-435 = system: MDA-MB-435
MDA-MB-468 breast = system: MDA-MB-468 breast
MOLT-4 leukemia = system: MOLT-4 leukemia
NCI-H226 lung = system: NCI-H226 lung
NCI-H23 lung = system: NCI-H23 lung
NCI-H460 lung = system: NCI-H460 lung
NCI-H522 lung = system: NCI-H522 lung
NCI/ADR-RES ovarian = system: NCI/ADR-RES ovarian
OVCAR-3 ovarian = system: OVCAR-3 ovarian
OVCAR-4 ovarian = system: OVCAR-4 ovarian
OVCAR-5 ovarian = system: OVCAR-5 ovarian
OVCAR-8 ovarian = system: OVCAR-8 ovarian
PC-3 prostate = system: PC-3 prostate
RPMI-8226 leukemia = system: RPMI-8226 leukemia
RXF 393 renal = system: RXF 393 renal
SF-268 CNS = system: SF-268 CNS
SF-295 CNS = system: SF-295 CNS
SF-539 CNS = system: SF-539 CNS
SK-MEL-2 melanoma = system: SK-MEL-2 melanoma
SK-MEL-28 melanoma = system: SK-MEL-28 melanoma
SK-MEL-5 melanoma = system: SK-MEL-5 melanoma
SK-OV-3 ovarian = system: SK-OV-3 ovarian
SN12C renal = system: SN12C renal
SNB-19 CNS = system: SNB-19 CNS
SNB-75 CNS = system: SNB-75 CNS
SW-620 colon = system: SW-620 colon
T-47D breast = system: T-47D breast
TK-10 renal = system: TK-10 renal
U251 CNS = system: U251 CNS
UACC-257 melanoma = system: UACC-257 melanoma
UACC-62 melanoma = system: UACC-62 melanoma
UO-31 renal = system: UO-31 renal

Work on `CN(C)c1nc(NCCNS(=O)(=O)c2ccc(C(=O)/C=C/c3ccc(Cl)cc3)cc2)nc(Nc2ccc(F)cc2)n1` yielded a GI50 (786-0 renal) of 7.28 µM, a TGI (786-0 renal) of 20.2 µM and a GI50 (A498 renal) of 10.5 µM. It also gave a TGI (A498 renal) of 23.1 µM, a GI50 (A549 NSCLC) of 4.52 µM and a TGI (A549 NSCLC) of 17.4 µM. The GI50 (ACHN renal) was 4.2 µM, the TGI (ACHN renal) was 15.3 µM and the GI50 (BT-549 breast) was 11.6 µM. It also gave a TGI (BT-549 breast) of 23.9 µM, a GI50 (CAKI-1 renal) of 4.93 µM and a TGI (CAKI-1 renal) of 19.5 µM. For the same compound, the GI50 (CCRF-CEM leukemia) was 3.75 µM, the TGI (CCRF-CEM leukemia) was greater than 100 µM and the GI50 (COLO 205 colon) was 5.96 µM. It also gave a TGI (COLO 205 colon) of 18.7 µM, a GI50 (DU-145 prostate) of 9.7 µM and a TGI (DU-145 prostate) of 21.8 µM. The GI50 (EKVX NSCLC) was 3.11 µM, the TGI (EKVX NSCLC) was 14.7 µM and the GI50 (HCC-2998 colon) was 2.48 µM. It also gave a TGI (HCC-2998 colon) of 6.9 µM, a GI50 (HCT-116 colon) of 1.66 µM and a TGI (HCT-116 colon) of 3.11 µM. The GI50 (HCT-15 colon) was 4.62 µM, the TGI (HCT-15 colon) was 16.9 µM and the GI50 (HL-60(TB) leukemia) was 4.39 µM. For the same compound, the TGI (HL-60(TB) leukemia) was greater than 100 µM, the GI50 (HOP-62 NSCLC) was 12.5 µM and the TGI (HOP-62 NSCLC) was 27.5 µM. It also gave a GI50 (HOP-92 NSCLC) of 3.83 µM, a TGI (HOP-92 NSCLC) of 14.7 µM and a GI50 (HS 578T breast) of 11.4 µM. The TGI (HS 578T breast) was 58.1 µM, the GI50 (HT29 colon) was 2.15 µM and the TGI (HT29 colon) was 5.72 µM. For the same compound, the GI50 (IGROV1 ovarian) was 8.58 µM, the TGI (IGROV1 ovarian) was 21.4 µM and the GI50 (K-562 leukemia) was 3.29 µM. For the same compound, the TGI (K-562 leukemia) was greater than 100 µM, the GI50 (KM12 colon) was 2.97 µM and the TGI (KM12 colon) was 9.11 µM. It also gave a GI50 (LOX IMVI melanoma) of 2.74 µM, a TGI (LOX IMVI melanoma) of 9.16 µM and a GI50 (M14 melanoma) of 4.14 µM. For the same compound, the TGI (M14 melanoma) was 15.3 µM, the GI50 (MALME-3M melanoma) was 12.8 µM and the TGI (MALME-3M melanoma) was 26.4 µM. The GI50 (MCF7 breast) was 2.28 µM, the TGI (MCF7 breast) was 6.33 µM and the GI50 (MDA-MB-231 breast) was 4.72 µM. For the same compound, the TGI (MDA-MB-231 breast) was 17.4 µM, the GI50 (MDA-MB-435) was 3.8 µM and the TGI (MDA-MB-435) was 14 µM. For the same compound, the GI50 (MDA-MB-468 breast) was 3.71 µM, the TGI (MDA-MB-468 breast) was 14.8 µM and the GI50 (MOLT-4 leukemia) was 3.07 µM. For the same compound, the TGI (MOLT-4 leukemia) was greater than 100 µM, the GI50 (NCI-H226 lung) was 6.14 µM and the TGI (NCI-H226 lung) was 24.3 µM. For the same compound, the GI50 (NCI-H23 lung) was 10.7 µM, the TGI (NCI-H23 lung) was 23.4 µM and the GI50 (NCI-H460 lung) was 3.38 µM. For the same compound, the TGI (NCI-H460 lung) was 13.8 µM, the GI50 (NCI-H522 lung) was 7.1 µM and the TGI (NCI-H522 lung) was 22 µM. For the same compound, the GI50 (NCI/ADR-RES ovarian) was 5.49 µM, the TGI (NCI/ADR-RES ovarian) was 18.4 µM and the GI50 (OVCAR-3 ovarian) was 3.16 µM. It also gave a TGI (OVCAR-3 ovarian) of 11.9 µM, a GI50 (OVCAR-4 ovarian) of 5.92 µM and a TGI (OVCAR-4 ovarian) of 22 µM. It also gave a GI50 (OVCAR-5 ovarian) of 10.7 µM, a TGI (OVCAR-5 ovarian) of 22.6 µM and a GI50 (OVCAR-8 ovarian) of 10.2 µM. It also gave a TGI (OVCAR-8 ovarian) of 23.7 µM, a GI50 (PC-3 prostate) of 3.74 µM and a TGI (PC-3 prostate) of 14.1 µM. It also gave a GI50 (RPMI-8226 leukemia) of 2.47 µM, a TGI (RPMI-8226 leukemia) of 7.11 µM and a GI50 (RXF 393 renal) of 3.09 µM. It also gave a TGI (RXF 393 renal) of 15.1 µM, a GI50 (SF-268 CNS) of 6.21 µM and a TGI (SF-268 CNS) of 23.5 µM. It also gave a GI50 (SF-295 CNS) of 6.11 µM, a TGI (SF-295 CNS) of 19.8 µM and a GI50 (SF-539 CNS) of 10.1 µM. The TGI (SF-539 CNS) was 22 µM, the GI50 (SK-MEL-2 melanoma) was 5.47 µM and the TGI (SK-MEL-2 melanoma) was 19.5 µM. It also gave a GI50 (SK-MEL-28 melanoma) of 6.77 µM, a TGI (SK-MEL-28 melanoma) of 20.1 µM and a GI50 (SK-MEL-5 melanoma) of 5.89 µM. For the same compound, the TGI (SK-MEL-5 melanoma) was 18.8 µM, the GI50 (SK-OV-3 ovarian) was 11.5 µM and the TGI (SK-OV-3 ovarian) was 27.7 µM. For the same compound, the GI50 (SN12C renal) was 3.79 µM, the TGI (SN12C renal) was 15.9 µM and the GI50 (SNB-19 CNS) was 9.18 µM. The TGI (SNB-19 CNS) was 21.3 µM, the GI50 (SNB-75 CNS) was 5.6 µM and the TGI (SNB-75 CNS) was 25.7 µM. It also gave a GI50 (SW-620 colon) of 2.78 µM, a TGI (SW-620 colon) of 11 µM and a GI50 (T-47D breast) of 4.37 µM. The TGI (T-47D breast) was 18 µM, the GI50 (TK-10 renal) was 11.7 µM and the TGI (TK-10 renal) was 30.3 µM. The GI50 (U251 CNS) was 5.25 µM, the TGI (U251 CNS) was 18.6 µM and the GI50 (UACC-257 melanoma) was 8.36 µM. For the same compound, the TGI (UACC-257 melanoma) was 21.8 µM, the GI50 (UACC-62 melanoma) was 5.41 µM and the TGI (UACC-62 melanoma) was 18.7 µM. The GI50 (UO-31 renal) was 4 µM and the TGI (UO-31 renal) was 16.6 µM.
